Experimental data: publication PMC9933483, “Tail-Approach-Based Design and Synthesis of Coumarin-Monoterpenes as Carbonic Anhydrase Inhibitors and Anticancer Agents” (ACS Omega, 2023)

How the values were obtained:
[1] = tested on: PC-3 cell line; experiment: Cell cytotoxicity, MTT assay; assay type: cell-based; conditions: Homo sapiens, 24 h
[2] = biological target: hCA IX (Homo sapiens, UniProt Q16790); experiment: biochemical
[3] = tested on: HEK293T cell line; experiment: Cell cytotoxicity, MTT assay; assay type: cell-based; conditions: Homo sapiens, HEK-293T, 24 h, healthy cell line
[4] = tested on: CA IX; experiment: Western blotting of CA IX protein expression in HT-29 cells; assay type: cell-based, human; conditions: western blot, hypoxia (200 μM CoCl2), 24 h, three doses
Description: (§1) CA IX and CA XII protein expressions were evaluated in treated and control HT-29 and MCF7 cells after hypoxia induction. Cells were seeded in a 6-well plate in DMEM/F12 (normoxic cells) or DMEM/F12 containing 200 μM CoCl2 (hypoxic and treated cells) in order to create hypoxia.[25] HT29 cells were treated with 14 (40, 10, and 1.25 μM), 23 (80, 20, and 1.25 μM), and 66 (80, 20, and 1.25 μM), and MCF7 cells were treated with 14 (40, 10, and 1.25 μM), 23 (80, 20, and 1.25 μM), and 63 (80, 20, and 1.25 μM) for 24 h at three different doses. After the treatment period, cells were washed with cold PBS and homogenized into Ripa cell lysis buffer (Santa Cruz, USA). Samples were prepared, electrophoresed, and transferred according to the literature.[25] The membranes were blocked in 5% fat-free milk (w/v) for 1 h at RT, incubated with the corresponding antibody at 4 °C overnight, and then incubated with the horseradish peroxidase (HRP)-labeled secondary antibody for 1 h at RT. The following antibodies were used: anti-CA IX (ab107257, Abcam), anti-CA XII (sc-374314, Santa Cruz), and anti-GAPDH (A19056, Abclonal). Finally, the membranes were stained with ECL reagents (LumiGLO, CST, USA), and then, imaging was performed with the Bio-Rad Chemidoc Imaging System. The bands were calculated with the Image Lab (Bio-Rad, USA) and analyzed with Graphpad Prism 9.00 (San Diego, CA, USA).

[5] = tested on: CA XII; experiment: Western blotting of CA XII protein expression in MCF-7 cells; assay type: cell-based, human; conditions: western blot, hypoxia (200 μM CoCl2), 24 h, three doses
Description: as §1

[6] = tested on: HT-29 cells; experiment: Fluorescence microscopy, PI/Hoechst staining; assay type: cell-based, human; conditions: HT-29, 1.25 μM, 24 h
Description: HT-29 cells were stained with propidium iodide (PI) and Hoechst 33342 for observation of cell viability under the microscope. HT29 cells were treated with 14, 23, and 66 for 24 h at 1.25 μM concentration. After the treatment period cells were rinsed with PBS, fixed with ice-cold ethanol (95%) at −20 °C for 2 h, and then rinsed with PBS again. Cells were incubated with PI and Hoechst for 10 min and observed by using a fluorescence microscope (Zeiss Axio Observer Z1) with the appropriate excitation/detection filters.

[7] = tested on: HT-29 cell line; experiment: Cell cytotoxicity, MTT assay; assay type: cell-based, human; conditions: for IC50: Homo sapiens, HT-29, MTT, 24 h
[8] = tested on: CA IX; experiment: Western blotting of CA IX protein expression in MCF-7 cells; assay type: cell-based, human; conditions: western blot, hypoxia (200 μM CoCl2), 24 h, three doses
Description: as §1

[9] = tested on: MCF-7 cell line; experiment: Cell cytotoxicity, MTT assay; assay type: cell-based, human; conditions: Homo sapiens, MCF7, 24 h
[10] = tested on: CA XII; experiment: Western blotting of CA XII protein expression in HT-29 cells; assay type: cell-based, human; conditions: western blot, hypoxia (200 μM CoCl2), 24 h, three doses
Description: as §1

Row | SMILES | IC50 [1] | Ki [2] | IC50 [3] | CA IX expression in HT-29 cells [4] | CA XII expression in MCF-7 cells [5] | apoptotic/dead cells by PI/Hoechst staining [6] | IC50 [7] | selectivity on HT-29 (cancer vs healthy cells) relative to dox ([7]; compared with dox) | CA IX expression in MCF-7 cells [8] | IC50 [9] | CA XII expression in HT-29 cells [10]
1 | Cc1ccc(C(C)C)cc1OCc1cn(CCCCCCOc2ccc3ccc(=O)oc3c2)nn1 [Compound 23, 7-((6-(4-((5-Isopropyl-2-methylphenoxy)methyl)-1H-1,2,3-triazol-1-yl)hexyl)oxy)-2H-chromen-2-one] | 9.4 ± 3.35 µM | 0.0019 µM | 8.82 ± 1.42 µM | decreased | decreased | increased apoptotic/dead cells | 12.1 ± 3.63 µM | 3 fold | decreased | 9.1 ± 3.93 µM | decreased
2 | Cc1ccc(C(C)C)c(OCc2cn(CCCCOc3ccc4ccc(=O)oc4c3)nn2)c1 [Compound 14, 7-(4-(4-((2-Isopropyl-5-methylphenoxy)methyl)-1H-1,2,3-triazol-1-yl)butoxy)-2H-chromen-2-one] | 53.8 ± 23.4 µM | – | 4.57 ± 0.33 µM | decreased | decreased | increased apoptotic/dead cells | 25.1 ± 6.47 µM | – | decreased | 2.48 ± 0.69 µM | decreased
3 | C=CCc1ccc(OCCCCCCCCCCOc2ccc3ccc(=O)oc3c2)c(OC)c1 [Compound 66, 7-((10-(4-Allyl-2-methoxyphenoxy)decyl)oxy)-2H-chromen-2-one] | 25.6 ± 3.47 µM | 1.3 µM | 18.3 ± 3.08 µM | decreased | – | increased apoptotic/dead cells | 22 ± 5.63 µM | – | – | 17.8 ± 2.76 µM | decreased
